Results: patent US5759787A, “Kinase assay” (Tularik Inc., priority 1996, dated 1998)
Where no end group is shown, it is not given here.

System: PKA
Experiment: Radioactive PKA kinase reaction with phosphocellulose or streptavidin capture
Type: biochemical
Settings: substrate peptide
Description: The peptide substrates were added in 90 μl assay buffer containing 20 mM Tris-HCl pH 7.5, 2.5 mM MgCl2, and 100 μM ATP for non-radioactive detection, or 10 μM cold ATP supplemented with 0.5 μCi/well [γ-^32 P]ATP for radioactive detection, unless indicated otherwise. Freshly reconstituted PKA (1.25 ng/well in 10 μl, unless indicated otherwise) was added last and the samples were incubated for 30 minutes at room temperature. Depending on the detection method the samples were further processed as described below.
After performing a PKA kinase reaction for 30 minutes, the samples were divided into two. 50 μl were transferred into wells of streptavidin coated microtiter plates, to allow the capture of the biotinylated peptides for additional 50 minutes. The wells were washed five times with water, dried, broken into scintillation vials and counted. The other half of the reaction mixture was further incubated in the original plate for 50 minutes, then TCA was added to the reaction mixture (10% final concentration) and 30 μl was spotted onto P81 paper (1×1 inch squares). After 20 minutes the squares were washed three times with water, dried, placed into scintillation vials and counted. A microtiter plate version of the phosphocellulose capture method was also used with similar results. For src only the phosphocellulose capture method was used.

**Q.** Which Km does the source give for “bio-RRRVTSAARRS (not fully specified (N-terminus); printed as bio-RRRVTSAARRS) [peptide 2]” here?
**A.** > 20 µM
